Results published in US11413348B2, “Low molecular weight cationic lipids for oligonucleotide delivery” (SIRNA THERAPEUTICS, INC., priority 2010, dated 2022).

Assays:
[1] = system: CTNNB1 mRNA; assay: Rhesus monkey in vivo evaluation of β-catenin efficacy (liver CTNNB1 mRNA); settings: beta-catenin siRNA, doses ranging from 0.67-3.34 mg/m^2, intravenous bolus, FIG. 5
Description: On study day −7 predose liver biopsy samples (˜0.5-1 gram/sample) were collected from male rhesus monkeys by laparoscopic surgical resection (resection of one biopsy sample from outer edge of one randomly selected liver lobe per monkey). A 5 mm tissue punch was used to sample three non-adjacent ˜50 mg samples from each predose biopsy. Samples were preserved in RNAlater™ (Ambion) for later CTNNB1 mRNA analysis.
On study day 0 monkeys were administered suspensions of the lipid nanoparticle (LNP) test articles in phosphate buffered saline (0.05-0.1 mg siRNA/mL) via single-dose intravenous bolus injection at target doses of 0.67, 1.34 or 3.34 mg siRNA/m^2. […]
CTNNB1 mRNA levels were measured by relative quantitative RT-PCR using a primer/probe set validated for CTNNB1 and normalized against mRNA levels of peptidylprolyl isomerase B (also known as PPIB or cyclophilin B) and RNA levels of 18S ribosomal RNA (18S rRNA). Change in CTNNB1 mRNA liver expression was measured as the difference in PCR threshold cycle number (ΔΔCt) between post-dose samples and each corresponding monkey's predose liver samples.
Calculation of CTNNB1 mRNA knockdown (with respect to pretreatment levels) was calculated from ΔΔCt using the following relationship: mRNA (% knockdown)=100−(100/2^−ΔΔCt)

[2] = Determination of cationic lipid levels in rat liver (LC/MS-MS); type: in vivo; settings: rats, FIG. 3
Description: (§1) Liver tissue was weighed into 20-ml vials and homogenized in 9 v/w of water using a GenoGrinder 2000 (OPS Diagnostics, 1600 strokes/min, 5 min). A 50 μL aliquot of each tissue homogenate was mixed with 300 μL of extraction/protein precipitating solvent (50/50 acetonitrile/methanol containing 500 nM internal standard) and the plate was centrifuged to sediment precipitated protein. A volume of 200 μL of each supernatant was then transferred to separate wells of a 96-well plate and 10 μl samples were directly analyzed by LC/MS-MS.
(§2) Standards were prepared by spiking known amounts of a methanol stock solution of compound into untreated rat liver homogenate (9 vol water/weight liver). Aliquots (50 μL) each standard/liver homogenate was mixed with 300 μL of extraction/protein precipitating solvent (50/50 acetonitrile/methanol containing 500 nM internal standard) and the plate was centrifuged to sediment precipitated protein. A volume of 200 μL of each supernatant was transferred to separate wells of a 96-well plate and 10 μl of each standard was directly analyzed by LC/MS-MS.
(§3) Absolute quantification versus standards prepared and extracted from liver homogenate was performed using an Aria LX-2 HPLC system (Thermo Scientific) coupled to an API 4000 triple quadrupole mass spectrometer (Applied Biosystems). […]

[3] = Rat in vivo evaluation of toxicity (serum ALT and AST); settings: ApoB siRNA RDV, tail vein, 24 hours after dosing, FIG. 2
Description: Six hours post dose, food is removed from the cages. Animal necropsy is performed 24 hours after LNP dosing. Rats are anesthetized under isoflurane for 5 minutes, then maintained under anesthesia by placing them in nose cones continuing the delivery of isoflurane until ex-sanguination is completed. Blood is collected from the vena cava using a 23 gauge butterfly venipuncture set and aliquoted to serum separator vacutainers for serum chemistry analysis. Punches of the excised caudate liver lobe are taken and placed in RNALater (Ambion) for mRNA analysis. Preserved liver tissue was homogenized and total RNA isolated using a Qiagen bead mill and the Qiagen miRNA-Easy RNA isolation kit following the manufacturer's instructions. Liver ApoB mRNA levels were determined by quantitative RT-PCR. Message was amplified from purified RNA utilizing a rat ApoB commercial probe set (Applied Biosystems Cat #RN01499054_m1). The PCR reaction was performed on an ABI 7500 instrument with a 96-well Fast Block. The ApoB mRNA level is normalized to the housekeeping PPIB (NM 011149) mRNA. PPIB mRNA levels were determined by RT-PCR using a commercial probe set (Applied Biosytems Cat. No. Mm00478295_m1). Results are expressed as a ratio of ApoB mRNA/PPIB mRNA. All mRNA data is expressed relative to the PBS control dose. […]

[4] = Rhesus monkey in vivo evaluation of ALT increases; settings: serum, FIG. 6
Description: Alanine aminotransferase (ALT) is measured in serum that is harvested from clotted monkey whole blood after centrifugation. A Roche Modular System automated chemistry analyzer measures the enzymatic activity of ALT in the serum by using International Federation of Clinical Chemistry standardized procedures and reagents. The analyzer's computer uses absorbance measurements to calculated ALT activity in the sample as compared to a standard curve. The ALT activity is reported in International Units per Liter (IU/L).

[5] = Determination of cationic lipid levels in monkey liver (LC/MS-MS); type: in vivo; settings: monkeys, FIG. 7
Description: as §1, §2, §3

| SMILES | CTNNB1 mRNA knockdown in liver [1] | cationic lipid liver levels compared with RDV containing DLinKC2DMA (Compound 45) or MC3 (Compound 46) [2] | tolerability (serum ALT and AST) compared with RDV containing DLinKC2DMA (Compound 45) or MC3 (Compound 46) [3] | peak ALT elevations compared with RDV containing DLinKC2DMA (Compound 45) or MC3 (Compound 46) [4] | cationic lipid liver levels compared with RDV containing DLinKC2DMA (Compound 45) or MC3 (Compound 46) [5] |
| --- | --- | --- | --- | --- | --- |
| CCCCCCCCCC(CCCCCCCC1CC1CCCCCCCC)N(C)C [Compound 33, N,N-dimethyl-1-[(1S,2R)-2-octylcyclopropyl]hepladecan-8-amine] | robust KD | either similar to or lower than | improved tolerability | lower peak ALT elevations | lower than |
| CCCCC/C=C\C/C=C\CCCCCCCCCC(CCCCCCCCC)CCN(C)C (stereo not shown) [Compound 32, (13Z,16Z)—N,N-dimethyl-3-nonyldocosa-13,16-dien-1-amine] | robust KD | either similar to or lower than | improved tolerability | lower peak ALT elevations | lower than |
